Numbers after ± are expanded uncertainties.
Tests used:
[1] = DSC
[2] = Molar enthalpy of transition or fusion; details: DSC

- Triple point temperature ([1]; Crystal 1): 313.65 ± 1 K
- Triple point temperature ([1]; Crystal 2): 305.05 ± 1 K
- Molar enthalpy of transition or fusion ([2]; Crystal 1): 9.93 ± 1 kcal/mol
- Molar enthalpy of transition or fusion ([2]; Crystal 2): 3.42 ± 0.359 kcal/mol
SMILES: CCCCCCCCCCCCCCCCCCCCC [heneicosane]
